Assay results as given in patent US20130039852A1, “METHODS OF TARGETING CELLS FOR DIAGNOSIS AND THERAPY” (NORTHEASTERN UNIVERSITY, priority 2008, published 2013).
In brackets after ≈: the same amount, converted by molar mass.

Tests used:
anti-Bombesin antibody = assay: ELISA for bispecificity using anti-Bombesin capture antibody and DTPA-HRP; format: binding; details: 1 μg/ml, captured by anti-Bombesin antibody
Experimental: Intact 6C31H3 anti-DTPA antibody was modified with 100× molar excess iminothiolane. Bombesin was modified with 24× molar excess N-hydroxy-succinimide ester of bromoacetic acid (as described in Varvarigou et al., Can. Biother. Radiopharm. 19:219-229 (2004); and Bernatowicz et al., Anal. Biochem. 155:95-102 (1986)). […] The antibody activity and Bombesin concentrations were assessed by ELISA using either DTPA-BSA or anti-Bombesin antibody and compared to standard curves. Specifically, the Bombesin concentration of serial dilutions of Bom-BiSpCx starting at 1 μg/ml was determined by ELISA using Bombesin (1 μg/ml) and 6C31H3 antibody (1 μg/ml) as controls. Bombesin of the Bom-BiSpCx (1 μg/ml) was captured by an anti-Bombesin antibody, resulting in a positive reaction with DTPA-HRP (which is specific for the […] antibody of the Bom-BiSpCx).

PC-3 cancer cells = assay: In vitro therapeutic efficacy in PC-3 cell cultures; format: cell-based, human; details: 10 μg Bom-BiSpCx 24 hr then 10 μg/ml Dox-DPG, or 10 μg/ml free Dox; Trypan blue
Experimental: PC-3 cancer cells were grown in 10% fetal clone-DMEM until they reached about 80% confluence. The cells were then harvested by trypsin digestion and re-plated in 6 well culture plates at 40,000 cells per well. After attaining 70% confluency, the medium was replaced with or without 10 μg of Bom-BiSpCx (prepared as described in Example 3) in triplicates to quadruplicates. After 24 hr of incubation at 37° C. in 5% CO2, the media was changed to media containing 10 μg/ml of free Dox or Dox-DPG (prepared as described in Example 2). The cells were further incubated at 37° C. for 0-3 hr, 3-12 hr, or 12-24 hr, at which time the cells in each well were collected and the number of live and dead cells determined by Trypan blue exclusion test in a Hemocytometer. Negative control cells were treated with monospecific 2C5 antibody, […] antibody, Bombesin, or culture media alone. Positive control cells were treated with 10 μg/ml of free Dox. Each assay was repeated at least 3 times in triplicate or quadruplicate.

[1] = test system: H9C2 embryonic rat cardiocytes; assay: IC50 in H9C2 embryonic cardiocytes, Trypan Blue exclusion; format: cell-based; details: 24 hr
Experimental: H9C2 embryonic rat cardiocytes cultured in 10% Fetal Clone DMEM (F-DMEM) at 37° C. in 25 ml sterile culture flasks until 90% confluent in triplicate were dissociated by Trypsin digestion. The cells were washed in F-DMEM. Aliquots of 40,000 H9C2 cells in 1 ml F-DMEM were delivered to each well of a 6 well culture plate. After incubation for 24 hr, the culture medium was removed and fresh medium containing 2.5 μg/ml, 5 μg/ml, 10 μg/ml, 15 μg/ml, and 30 μg/ml of Dox-DPG or free Dox were added and incubated at 37° C. for 24 hr. Cell death was assessed by Trypan Blue exclusion test.

[2] = test system: BT-20 human mammary tumor cells; assay: In vitro assay for tumorotoxicity in BT-20 human mammary tumor cells; format: cell-based; details: BT-20 cells, 10 μg/ml, 3 hrs; compared with Dox-DPG and Dox-DPG-BiSpAb
Experimental: BT-20 human mammary tumor cells were grown in 10% Fetal Clone DEME. When the cells reached about 80% confluence, the cells were harvested by trypsin digestion and replated in […] culture plates at 400,000 cells per well. After 24 hrs, the culture media was removed and in one set of wells was replaced with media containing 10 μg/ml of 2C5-6C31H3 BiSpAb (prepared as described in Example 1). In two other sets, the media was replaced with media lacking 2C5-6C31H3 BiSpAb. Each set was prepared in triplicate. After 24 hrs of incubation, the medium was removed and washed 3× with medium lacking antibody. Medium containing 10 μg/ml of free Dox was then added to a medium-only set of wells, and media containing 10 μg/ml of Dox-DPG was added to one set with and one set without 2C5-6C31H3 BiSpAb. The cultures were incubated for either 3 hrs, 12 hrs, or 24 hrs, at which times the cells in the media were collected and viability was determined by counting cells with Tryptan Blue exclusion criteria in a hemocytometer.

| Compound | Reaction with DTPA-HRP, O.D. 490 nm (anti-Bombesin antibody) | Death of PC-3 cancer cells (PC-3 cancer cells) [%] | IC50 (cardiotoxicity) [1] [µg/mL] | Tumor cell killing, early stage of incubation [2] |
| --- | --- | --- | --- | --- |
| O=C(O)CN(CCN(CC(=O)O)CC(=O)O)CCN(CC(=O)O)CC(=O)O [DTPA, diethylene triaminepentaacetic acid] | 0.0007±0.0025 | – | – | – |
| COc1cccc2c1C(=O)c1c(O)c3c(c(O)c1C2=O)C[C@@](O)(C(=O)CO)C[C@@H]3O[C@H]1C[C@H](N)[C@H](O)[C@H](C)O1 [doxorubicin] | – | 68.6 | 1.02 (≈ 1.88 µM) | more effective in killing tumor cells |
